Drawing on patent publication US20230021442A1, “PHENOTHIAZINE FERROPTOSIS INHIBITOR, PREPARATION METHOD THEREFOR AND APPLICATION THEREOF” (CHENGDU HENGHAO INNOVATIVE SCIENCE AND TECHNOLOGY CO., LTD., priority 2019, published 2023), this text covers EC50 for one compound.

For the experiment, the system named is fibrosarcoma cell line. The experiment is described as follows: screening model for ferroptosis, MTT cell viability assay with ferroptosis inducer Erastin. It is filed as cell-based. The settings on record: Erastin 10 μM; 72 h; average of three tests. How it is done: In this example, in order to study the inhibitor of ferroptosis, a screening model for ferroptosis was constructed in house, and the details are as follows:
The screening model for ferroptosis mainly used the MTT cell viability assay. First, the fibrosarcoma cell line was cultured in a dish, and the cells in the logarithmic growth phase were seeded in a 96-well plate in specific numbers (3000-10000 cells/well), 100 μL per well, and then cultured in an incubator at 37° C. and 5% CO2 to allow the cells to adhere. After 24 h, 100 μL of compounds at certain concentrations prepared in the indicated medium and the ferroptosis inducer Erastin (final concentration of 10 μM) were added, and wells in triplicate were set up for each compound to ensure the accuracy of the results. A negative control group, positive control group (5 μM of ferrostain-1), blank control group and solvent control group were also set. After dosing, cells were placed in the incubator and cultured for 72h. […] The next day, the absorbance value at 570 nm was detected with a microplate reader to calculate the inhibition rate of the drug on ferroptosis. Generally, the absorbance value of the control group should be between 0.8-1.2 as a normal value. After obtaining the absorbance value data, the average value of wells in triplicate was calculated, and the inhibition rate was calculated using the following formula: […]
On the technique in general: Formazan colour is commonly taken as a measure of viable cells.

Regarding `C=C(c1ccc2c(c1)Nc1ccccc1S2)c1cnc2c(cnn2C)c1` [Compound 28], a half-maximal effect (EC50) was put at 58 nM.
